{
  "source": "patent US20030229063A1",
  "about": "“Use of 4-hydroxytestosterone to lower estrogen levels in humans” (priority 2002, published 2003)",
  "key": {"aromatase [1]": {"target": "T1, aromatase (Homo sapiens, UniProt P11511)", "T1 sequence (P11511 1-503)": "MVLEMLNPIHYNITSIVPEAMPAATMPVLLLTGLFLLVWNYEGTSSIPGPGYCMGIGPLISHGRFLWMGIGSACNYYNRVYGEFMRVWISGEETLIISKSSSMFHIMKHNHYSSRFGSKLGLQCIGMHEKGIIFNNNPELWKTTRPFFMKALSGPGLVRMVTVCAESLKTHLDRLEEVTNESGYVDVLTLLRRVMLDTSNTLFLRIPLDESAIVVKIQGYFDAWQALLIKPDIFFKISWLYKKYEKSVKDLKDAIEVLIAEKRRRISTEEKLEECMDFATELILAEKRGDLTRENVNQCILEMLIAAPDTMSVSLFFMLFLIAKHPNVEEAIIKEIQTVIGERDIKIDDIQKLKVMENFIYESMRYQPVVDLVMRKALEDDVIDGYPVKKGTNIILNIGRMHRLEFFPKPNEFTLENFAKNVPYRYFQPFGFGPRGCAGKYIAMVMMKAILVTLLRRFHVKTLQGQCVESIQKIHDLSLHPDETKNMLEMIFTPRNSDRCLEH", "conditions": "androstenedione vs testosterone as aromatase substrates; cited from earlier work"}, "aromatase [2]": {"target": "T1, aromatase", "test": "clinical study of peroral aromatase inhibition in man", "type": "in vivo", "design": "from tissue; host or cells: in vivo, human subjects (whole body)", "conditions": "in humans"}, "aromatase enzyme complex": {"target": "T2, aromatase enzyme complex (Homo sapiens, UniProt P11511)", "T2 sequence (P11511 1-503)": "T1 sequence (P11511 1-503)", "conditions": "irrevocably attaches the enzyme; cited from earlier work"}},
  "data": [
    {"smiles": "C[C@]12CC[C@H]3[C@@H](CCC4=CC(=O)CC[C@@]43C)[C@@H]1CC[C@@H]2O", "note": "[testosterone]", "values": [
      {"measurement": "ability to aromatize to the corresponding estrogen", "setting": "aromatase [1]", "value": "both hormones aromatized with equal efficacy"}
    ]},
    {"smiles": "C[C@]12CC[C@H]3[C@@H](CCC4=C(O)C(=O)CC[C@@]43C)[C@@H]1CC[C@@H]2O", "note": "[4-hydroxytestosterone, 4,17b-dihydroxy-4-androstene-3-one]", "values": [
      {"measurement": "efficacy as an inhibitor of aromatase compared with 4-hydroxyandrostenedione", "setting": "aromatase [2]", "value": "equally high level of efficacy in humans as an inhibitor of aromatase"}
    ]},
    {"smiles": "C[C@]12CCC(=O)C=C1CC[C@@H]1[C@@H]2CC[C@]2(C)C(=O)CC[C@@H]12", "note": "[androstenedione]", "values": [
      {"measurement": "ability to aromatize to the corresponding estrogen", "setting": "aromatase [1]", "value": "both hormones aromatized with equal efficacy"}
    ]},
    {"smiles": "C[C@]12CCC(=O)C(O)=C1CC[C@@H]1[C@@H]2CC[C@]2(C)C(=O)CC[C@@H]12", "note": "[4-hydroxyandrostenedione]", "values": [
      {"measurement": "mode of aromatase inhibition", "setting": "aromatase enzyme complex", "value": "suicide substrate for the aromatase enzyme complex"}
    ]}
  ]
}
